Data taken from patent publication US20230139445A1, “BACTERIAL CELLS WITH IMPROVED TOLERANCE TO DIACIDS” (priority 2016, published 2023).
Read-outs that look alike come from different tables or passages of the source.

Tests used:
[1] = system: Escherichia coli K-12 MG1655; assay: Growth of K-12 MG1655 in varying concentrations of fumaric, itaconic, malic and succinic acid, Growth Profiler; type: cell-based
Method in brief: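 Escherichia coli K-12 MG1655 cultures were grown in M9 medium with 1% glucose and challenged with the dicarboxylic acids, supplied as neutral sodium salts or as free acids neutralized to pH 7.0 with sodium hydroxide. Plates were shaken at 225 rpm and 37° C. in a Growth Profiler, scanned every 15 minutes, and green pixel values were converted to OD600 by calibration.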

[2] = system: Escherichia coli K-12 MG1655 and evolved isolates; type: cell-based; details: 45 g/L fumaric acid
Method in brief: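 Wild-type MG1655 and evolved isolates, precultured overnight in M9 + 1% glucose at 37 °C, were diluted into M9 + 1% glucose. Growth at 37 °C, 225 rpm, scanned every 15 min; pixel values calibrated to OD600. Diacids tested as sodium salts or neutralized to pH 7.0.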

O=C(O)/C=C/C(=O)O [fumaric acid]
μ (mean) ([1]; growth rate of K-12 MG1655, 10 g/L diacid (sodium salt)): 0.662 h^1 | μ (mean) ([1]; growth rate of K-12 MG1655, 20 g/L diacid (sodium salt)): 0.615 h^1 | μ (mean) ([1]; growth rate of K-12 MG1655, 30 g/L diacid (sodium salt)): 0.482 h^1 | μ (mean) ([1]; growth rate of K-12 MG1655, 40 g/L diacid (sodium salt)): 0.285 h^1 | μ (mean) ([1]; growth rate of K-12 MG1655, 50 g/L diacid (sodium salt)): 0.116 h^1 | tlag (mean) ([1]; lag time of K-12 MG1655, 10 g/L diacid (sodium salt)): 5.8 h | tlag (mean) ([1]; lag time of K-12 MG1655, 20 g/L diacid (sodium salt)): 6.9 h | tlag (mean) ([1]; lag time of K-12 MG1655, 30 g/L diacid (sodium salt)): 9.5 h | tlag (mean) ([1]; lag time of K-12 MG1655, 40 g/L diacid (sodium salt)): 15.4 h | tlag (mean) ([1]; lag time of K-12 MG1655, 50 g/L diacid (sodium salt)): 30.2 h | growth rate μ (mean) ([2]; strain ADIP1-1): 0.347 h⁻¹ | lag time tlag (mean) ([2]; strain ADIP1-1): 10.2 h | growth rate μ (mean) ([2]; strain ADIP1-9): 0.328 h⁻¹ | lag time tlag (mean) ([2]; strain ADIP1-9): 9.8 h | growth rate μ (mean) ([2]; strain ADIP2-5): 0.358 h⁻¹ | lag time tlag (mean) ([2]; strain ADIP2-5): 11.4 h | growth rate μ (mean) ([2]; strain ADIP2-6): 0.380 h⁻¹ | lag time tlag (mean) ([2]; strain ADIP2-6): 11.0 h | growth rate μ (mean) ([2]; strain ADIP2-10): 0.353 h⁻¹ | lag time tlag (mean) ([2]; strain ADIP2-10): 11.0 h | growth rate μ (mean) ([2]; strain ADIP3-2): 0.327 h⁻¹ | lag time tlag (mean) ([2]; strain ADIP3-2): 9.4 h | growth rate μ (mean) ([2]; strain ADIP3-4): 0.324 h⁻¹ | lag time tlag (mean) ([2]; strain ADIP3-4): 9.7 h | growth rate μ (mean) ([2]; strain ADIP3-8): 0.343 h⁻¹ | lag time tlag (mean) ([2]; strain ADIP3-8): 10.1 h | growth rate μ (mean) ([2]; strain ADIP4-1): 0.264 h⁻¹ | lag time tlag (mean) ([2]; strain ADIP4-1): 11.9 h | growth rate μ (mean) ([2]; strain ADIP4-8): 0.254 h⁻¹ | lag time tlag (mean) ([2]; strain ADIP4-8): 12.4 h | growth rate μ (mean) ([2]; strain ADIP5-2): 0.280 h⁻¹ | lag time tlag (mean) ([2]; strain ADIP5-2): 10.6 h | growth rate μ (mean) ([2]; strain ADIP5-6): 0.444 h⁻¹ | lag time tlag (mean) ([2]; strain ADIP5-6): 9.0 h | growth rate μ (mean) ([2]; strain ADIP6-3): 0.275 h⁻¹ | lag time tlag (mean) ([2]; strain ADIP6-3): 11.3 h | growth rate μ (mean) ([2]; strain ADIP6-9): 0.250 h⁻¹ | lag time tlag (mean) ([2]; strain ADIP6-9): 12.3 h | growth rate μ (mean) ([2]; strain ADIP6-10): 0.308 h⁻¹ | lag time tlag (mean) ([2]; strain ADIP6-10): 10.0 h | growth rate μ (mean) ([2]; strain ADIP7-2): 0.312 h⁻¹ | lag time tlag (mean) ([2]; strain ADIP7-2): 10.1 h | growth rate μ (mean) ([2]; strain ADIP7-5): 0.326 h⁻¹ | lag time tlag (mean) ([2]; strain ADIP7-5): 10.0 h | growth rate μ (mean) ([2]; strain ADIP8-3): 0.202 h⁻¹ | lag time tlag (mean) ([2]; strain ADIP8-3): 14.4 h | growth rate μ (mean) ([2]; strain ADIP8-7): 0.188 h⁻¹ | lag time tlag (mean) ([2]; strain ADIP8-7): 16.1 h | growth rate μ (mean) ([2]; strain ADIP8-10): 0.221 h⁻¹ | lag time tlag (mean) ([2]; strain ADIP8-10): 14.3 h | growth rate μ (mean) ([2]; strain GLUT1-3): 0.293 h⁻¹ | lag time tlag (mean) ([2]; strain GLUT1-3): 13.3 h | growth rate μ (mean) ([2]; strain GLUT1-9): 0.274 h⁻¹ | lag time tlag (mean) ([2]; strain GLUT1-9): 14.9 h | growth rate μ (mean) ([2]; strain GLUT1-10): 0.289 h⁻¹ | lag time tlag (mean) ([2]; strain GLUT1-10): 18.9 h | growth rate μ (mean) ([2]; strain GLUT2-1): 0.277 h⁻¹ | lag time tlag (mean) ([2]; strain GLUT2-1): 13.5 h | growth rate μ (mean) ([2]; strain GLUT2-9): 0.267 h⁻¹ | lag time tlag (mean) ([2]; strain GLUT2-9): 12.2 h | growth rate μ (mean) ([2]; strain GLUT2-10): 0.312 h⁻¹ | lag time tlag (mean) ([2]; strain GLUT2-10): 12.3 h | growth rate μ (mean) ([2]; strain GLUT3-5): 0.263 h⁻¹ | lag time tlag (mean) ([2]; strain GLUT3-5): 16.6 h | growth rate μ (mean) ([2]; strain GLUT3-7): 0.264 h⁻¹ | lag time tlag (mean) ([2]; strain GLUT3-7): 16.2 h | growth rate μ (mean) ([2]; strain GLUT3-9): 0.305 h⁻¹ | lag time tlag (mean) ([2]; strain GLUT3-9): 24.3 h | growth rate μ (mean) ([2]; strain GLUT4-1): 0.295 h⁻¹ | lag time tlag (mean) ([2]; strain GLUT4-1): 14.6 h | growth rate μ (mean) ([2]; strain GLUT4-4): 0.287 h⁻¹ | lag time tlag (mean) ([2]; strain GLUT4-4): 15.3 h | growth rate μ (mean) ([2]; strain GLUT4-10): 0.274 h⁻¹ | lag time tlag (mean) ([2]; strain GLUT4-10): 16.3 h | growth rate μ (mean) ([2]; strain GLUT5-4): 0.386 h⁻¹ | lag time tlag (mean) ([2]; strain GLUT5-4): 14.1 h | growth rate μ (mean) ([2]; strain GLUT5-5): 0.375 h⁻¹ | lag time tlag (mean) ([2]; strain GLUT5-5): 15.1 h | growth rate μ (mean) ([2]; strain GLUT5-9): 0.370 h⁻¹ | lag time tlag (mean) ([2]; strain GLUT5-9): 14.9 h | growth rate μ (mean) ([2]; strain GLUT6-4): 0.281 h⁻¹ | lag time tlag (mean) ([2]; strain GLUT6-4): 13.8 h | growth rate μ (mean) ([2]; strain GLUT6-5): 0.279 h⁻¹ | lag time tlag (mean) ([2]; strain GLUT6-5): 13.2 h | growth rate μ (mean) ([2]; strain GLUT6-10): 0.277 h⁻¹ | lag time tlag (mean) ([2]; strain GLUT6-10): 14.2 h | growth rate μ (mean) ([2]; strain GLUT7-2): 0.304 h⁻¹ | lag time tlag (mean) ([2]; strain GLUT7-2): 14.6 h | growth rate μ (mean) ([2]; strain GLUT7-6): 0.261 h⁻¹ | lag time tlag (mean) ([2]; strain GLUT7-6): 19.5 h | growth rate μ (mean) ([2]; strain GLUT7-7): 0.193 h⁻¹ | lag time tlag (mean) ([2]; strain GLUT7-7): 22.0 h | growth rate μ (mean) ([2]; strain GLUT8-5): 0.247 h⁻¹ | lag time tlag (mean) ([2]; strain GLUT8-5): 14.4 h | growth rate μ (mean) ([2]; strain GLUT8-6): 0.272 h⁻¹ | lag time tlag (mean) ([2]; strain GLUT8-6): 43.5 h | growth rate μ (mean) ([2]; strain GLUT8-9): 0.196 h⁻¹ | lag time tlag (mean) ([2]; strain GLUT8-9): 54.3 h | growth rate μ (mean) ([2]; strain MG1655 (Table 26)): 0.216 h⁻¹ | lag time tlag (mean) ([2]; strain MG1655 (Table 26)): 16.6 h | growth rate μ (mean) ([2]; strain MG1655 (Table 27)): 0.212 h⁻¹ | lag time tlag (mean) ([2]; strain MG1655 (Table 27)): 15.5 h
